Reference: patent US10260105B2, “MiR-320e and colorectal cancer” (BAYLOR RESEARCH INSTITUTE, priority 2014, dated 2019)

Test system: stage II and III CRC
Assay: Kaplan-Meier DFS and OS estimates in validation cohort patients treated with 5-FU-based adjuvant chemotherapy
Format: in vivo
Details: 167 stage II and III CRC patients, 5-FU-based adjuvant chemotherapy for 6 months after tumor resection
Description: Validation Patient Cohort. This group included a total of 237 CRC patients (65 stage II, 102 stage III, and 70 stage IV) that were enrolled as part of a clinical trial conducted at the Hospital Clinic, Barcelona, Spain. Patients in this clinical trial were enrolled between 1996 and 2008, and the median follow-up was 4.7 years in patients that were alive at last follow-up, and 3.5 years for all patients. All stage II and III patients were treated with 5-FU-based adjuvant chemotherapy following resection of the primary tumor; all stage IV patients were treated with 5-FU and oxaliplatin (Takahashi, et al., 2012). Normal colonic mucosa (n=20) from healthy individuals was obtained from the Pathology Department of the Hospital Clinic of Barcelona and included as controls. This study was approved by the Institutional Review Board (IRB) of Hospital Clinic, Barcelona, Spain, and a written informed consent was obtained from all patients.
Distributions in the validation cohort are presented as mean (SD) or median (range) depending on level of skewness in the data for continuous variables, or as counts (percentage) for categorical variables. Nonparametric tests (rank sum, Kruskal Wallace) were used to compare expression between groups. Kaplan Meier and Cox regression models were used to assess association with time to event outcomes that included overall survival (OS), defined as time from diagnosis to death, and disease free survival (DFS) defined as time from diagnosis to disease recurrence or death. Due to the scale of miR320e expression, hazard ratios are presented as the change in risk of a person at the 75th percentile relative to a person at the 25th percentile of miR-320e distribution. This can be interpreted as the increase in risk due to a patient moving from the middle of the bottom half of the miR-320e distribution to the middle of the top half of the distribution. Bootstrapping was used to calculate an optimism corrected c-index, analogous to the area under the receiver operating characteristic curve (Steyerberg, et al., 2011). A c-index of 0.5 denotes random predictions, whereas a c index of 1 denotes perfect predictions.
Higher expression miR320e is associated with poor outcome in patients with stage II and III CRC. To determine the potential prognostic significance of miR-320e expression, Cox regression models were utilized with the miRNA expression levels considered as continuous variables. There were 167 stage II and III CRC patients in the validation cohort with sufficient data for these analyses. All of these patients were treated with 5-FU-based adjuvant chemotherapy for 6 months subsequent to tumor resection. Of these patients, 65 out of 167 (38.9%) were stage II and the remainder were stage III. […]

O=c1[nH]cc(F)c(=O)[nH]1 [5-FU, 5-fluorouracil]
2-year Kaplan-Meier DFS estimate (2 years): 78.32%
2-year OS estimate (2 years): 91.57%
5-year Kaplan-Meier DFS estimate (5 years): 63.96%
5-year OS estimate (5 years): 78.52%
